Series [1] deals with Swiss male mice. Put plainly: Acute in vivo toxicity, unique IP injection. Particulars: mice, from 20 mg/kg/day.
Series [2] relates to 97 kinases. As to the kind of experiment: Kinome profiling (KINOMEscan, whole panel). It counts as binding, human. Particulars: OR0642 1 µM. The method, then:
Kinome profiling was provided by Eurofins DiscoverX Corporation. Determination of the % control activity for 97 kinases was obtained through an active site-directed competition binding assay that quantitatively measure interactions between compound and kinases. OR0642 was used at 1 μM.
Supplementary Table 3. KINOMEscan™ Profiling of OR0642. Competition binding assay to quantitatively measure interactions between OR0642 (1 µM) and 97 human kinases and disease relevant mutant variants.
Target Gene Symbol %Control Target Gene Symbol %Control […]

Series [3] concerns PDX UPNT380. As to the kind of experiment: Ex vivo testing on PDX samples (viability, flow cytometry, 72 h). It counts as cell-based, human. The source says:
(§1) Bone marrow-infiltrating blasts from terminally mice bearing PDX as stated above were collected as established before. Extensive analysis (immunophenotype and molecular analysis) of matched primary and PDX samples used in the study are shown in Supplementary Table 7, showing that they remain stable. Briefly, after euthanasia, bone marrows from tibiae, hips, femurs, and vertebrae were isolated and blasts collected for subsequent ex vivo experiments. All samples used contained ≥90% blasts as determined by flow cytometry. For the cytotoxic evaluation of OR0642, blasts were then stained with CellTraceTM Violet (CTV, Thermo Fisher Scientific, C34557) prior seeding at 10,000 cells into 96-well plates under normal conditions or pre-plated with OP9-DL1 cells. Cells were cultured in RPMI 1640 supplemented with 20% fetal bovine serum, 50 µg/ml streptomycin, 50 UI penicillin, 4 mM L-glutamine, and a cocktail of human cytokines as previously established (50 ng/ml human stem cell factor, 20 ng/ml hFLT3-L, 10 ng/ml hIL-7 and 20 nM insulin (Miltenyi Biotec))[28]. […] Rescue by dC supplementation (1 µM) was also evaluated. OR0642 was then tested alone, or combined with dT or dT + dC at two concentrations (0.25 and 0.5 µM). Cell viability was evaluated by flow cytometry 72 h post-treatment. Proliferation indexes were calculated using the detection of CTV in the control replicates (DMSO) and the proliferation modeling tool of FlowJo™ Software 10.7.1 (BD Life Sciences). A control peak of undivided CTV-stained cells was systematically used to set the undivided fraction.
On the technique in general: Flow cytometry measures light scatter and fluorescence of single cells or particles in a stream.

Series [4] has as its system PDX UPNT486. The description is as above. It counts as cell-based, human.
Description: as §1

For series [5], the system named is PDX UPNT489. The description is as above. The format is cell-based, human.
Description: as §1

For series [6], the system named is PDX UPNT525. Described as above. The format is cell-based, human.
Description: as §1

Series [7] relates to PDX UPNT615. Described as above. It counts as cell-based, human.
Description: as §1

The subject of series [8] is PDX UPNT775. The description is as above. The format is cell-based, human.
Description: as §1

Series [9] concerns PDX UPNT730. Put plainly: Ex vivo testing on PDX samples (viability, flow cytometry, 72 h), with or without OP9-DL1 monolayer. It counts as cell-based, human. Particulars: for viability at 12 µM / viability at 37 µM / viability at 111 µM / viability at 333 µM / viability at 1000 µM / viability at 3000 µM: Homo sapiens, read-out: Cell viability, Mean (% viab); for viability at 12 µM: dT 12 µM; for viability at 37 µM: dT 37 µM; for viability at 111 µM: dT 111 µM; for viability at 333 µM: dT 333 µM; for viability at 1000 µM: dT 1000 µM; for viability at 3000 µM: dT 3000 µM.
Description: as §1

Usually viability stands for a read-out of living cells in per cent, often relative to untreated cells.

Structures are written as SMILES. Read-outs that look alike come from different tables or passages of the source.

For the molecule `CCCN(c1nc(-c2nc(N)cc(N)n2)cs1)c1cc(-c2ccc(CCN3CCN(C)CC3)nc2)ccc1C` [OR0602], in series [1], the in vivo tolerance result is on record as “unacceptable side effects”.
As to `CCCN(c1nc(-c2nc(N)cc(N)n2)cs1)c1cc(-c2ccc(S(=O)(=O)N3CCN(C)CC3)cc2C(F)(F)F)ccc1C` [OR0642], in series [2], the “kinome-wide profiling” value is on record as “none of the 97 kinases tested was inhibited”.
For the molecule `Cc1cn([C@H]2C[C@H](O)[C@@H](CO)O2)c(=O)[nH]c1=O` [dT, thymidine], the viability at 12 µM in [3] (Homo sapiens, UPNT380, dT 12 µM, read-out: Cell viability, Mean (% viab)) was determined as 100%; in series [4] (Homo sapiens, UPNT486, dT 12 µM, read-out: Cell viability, Mean (% viab)), 99.7%; in series [5] (Homo sapiens, UPNT489, dT 12 µM, read-out: Cell viability, Mean (% viab)), 100%; in [7] (Homo sapiens, UPNT615, dT 12 µM, read-out: Cell viability, Mean (% viab)), 100%; in series [8] (Homo sapiens, UPNT775, dT 12 µM, read-out: Cell viability, Mean (% viab)), 100%; in series [9] (UPNT730 + OP9-DL1), 100%. For the same molecule, the viability at 12 µM in [9] (UPNT730) stood at 100%. Moreover, the viability at 37 µM is 85.4% in series [3] (Homo sapiens, UPNT380, dT 37 µM, read-out: Cell viability, Mean (% viab)); 95% in series [4] (Homo sapiens, UPNT486, dT 37 µM, read-out: Cell viability, Mean (% viab)); 94.6% in [5] (Homo sapiens, UPNT489, dT 37 µM, read-out: Cell viability, Mean (% viab)); 99.5% in series [6] (Homo sapiens, UPNT525, dT 37 µM, read-out: Cell viability, Mean (% viab)); 84.7% in series [7] (Homo sapiens, UPNT615, dT 37 µM, read-out: Cell viability, Mean (% viab)); 86.3% in series [8] (Homo sapiens, UPNT775, dT 37 µM, read-out: Cell viability, Mean (% viab)). The figures for the viability at 37 µM in series [9] (UPNT730 + OP9-DL1) and in [9] (UPNT730) were 96.3% and 106%, respectively. Also, the viability at 111 µM was determined as 79.4% in [3] (Homo sapiens, UPNT380, dT 111 µM, read-out: Cell viability, Mean (% viab)); 90.6% in series [4] (Homo sapiens, UPNT486, dT 111 µM, read-out: Cell viability, Mean (% viab)); 87% in series [5] (Homo sapiens, UPNT489, dT 111 µM, read-out: Cell viability, Mean (% viab)); 67.8% in series [6] (Homo sapiens, UPNT525, dT 111 µM, read-out: Cell viability, Mean (% viab)); 78.6% in series [7] (Homo sapiens, UPNT615, dT 111 µM, read-out: Cell viability, Mean (% viab)); 53.9% in [8] (Homo sapiens, UPNT775, dT 111 µM, read-out: Cell viability, Mean (% viab)). In addition, the results for the viability at 111 µM in [9] (UPNT730 + OP9-DL1) and in [9] (UPNT730) were 86.4% and 107%, respectively. Moreover, the viability at 333 µM in series [3] (Homo sapiens, UPNT380, dT 333 µM, read-out: Cell viability, Mean (% viab)) is 76.9%; in [4] (Homo sapiens, UPNT486, dT 333 µM, read-out: Cell viability, Mean (% viab)) it was 100%; in [5] (Homo sapiens, UPNT489, dT 333 µM, read-out: Cell viability, Mean (% viab)), 78.3%; in series [6] (Homo sapiens, UPNT525, dT 333 µM, read-out: Cell viability, Mean (% viab)), 44.3%; in [7] (Homo sapiens, UPNT615, dT 333 µM, read-out: Cell viability, Mean (% viab)), 73.6%; in [8] (Homo sapiens, UPNT775, dT 333 µM, read-out: Cell viability, Mean (% viab)), 40.5%. The viability at 333 µM in series [9] (UPNT730 + OP9-DL1) was determined as 82%; in series [9] (UPNT730), 109%. Also, the viability at 1000 µM in [3] (Homo sapiens, UPNT380, dT 1000 µM, read-out: Cell viability, Mean (% viab)) was determined as 70.3%; in series [4] (Homo sapiens, UPNT486, dT 1000 µM, read-out: Cell viability, Mean (% viab)), 90.2%; in series [5] (Homo sapiens, UPNT489, dT 1000 µM, read-out: Cell viability, Mean (% viab)) it was 71.4%; in [6] (Homo sapiens, UPNT525, dT 1000 µM, read-out: Cell viability, Mean (% viab)) it was 30.6%; in [7] (Homo sapiens, UPNT615, dT 1000 µM, read-out: Cell viability, Mean (% viab)), 67.2%; in series [8] (Homo sapiens, UPNT775, dT 1000 µM, read-out: Cell viability, Mean (% viab)) it was 36%. Moreover, the viability at 1000 µM in [9] (UPNT730 + OP9-DL1) stood at 72.2%; in series [9] (UPNT730) it was 102%. Besides, the viability at 3000 µM in [3] (Homo sapiens, UPNT380, dT 3000 µM, read-out: Cell viability, Mean (% viab)) was 67.7%; in [4] (Homo sapiens, UPNT486, dT 3000 µM, read-out: Cell viability, Mean (% viab)), 77.6%; in [5] (Homo sapiens, UPNT489, dT 3000 µM, read-out: Cell viability, Mean (% viab)), 66.9%; in series [6] (Homo sapiens, UPNT525, dT 3000 µM, read-out: Cell viability, Mean (% viab)), 24.9%; in series [7] (Homo sapiens, UPNT615, dT 3000 µM, read-out: Cell viability, Mean (% viab)), 66.7%; in series [8] (Homo sapiens, UPNT775, dT 3000 µM, read-out: Cell viability, Mean (% viab)), 36.7%. The viability at 3000 µM in [9] (UPNT730 + OP9-DL1) was determined as 72.9%; in series [9] (UPNT730), 105%. Moreover, the “Response at dT100 µM” value came out at 27 in series [3] (PDX 380, dT 100 µM); 31 in series [4] (PDX 486, dT 100 µM); 39 in series [5] (PDX 489, dT 100 µM); 44 in [6] (PDX 525, dT 100 µM); 31 in [7] (PDX 615, dT 100 µM); 63 in [8] (PDX 775, dT 100 µM). Moreover, in [9] (PDX 730, dT 100 µM), the “Response at dT100 µM” value amounted to 17. Moreover, the “sensitivity” value in series [9] (proliferative conditions (OP9-DL1 monolayer)) is recorded as “sensitive”.

Values taken from publication PMC10227015, “From a drug repositioning to a structure-based drug design approach to tackle acute lymphoblastic leukemia” (Nature Communications, 2023).
